Data as given in US11298348B2, “Combination treatment of sarcoglycanopathies” (INSERM (INSTITUT NATIONAL DE LA SANTE ET DE LA RECHERCHE …, priority 2018, dated 2022).

What was measured:
R77C-α-SG [1] = target: T1, R77C-α-SG (Homo sapiens, UniProt Q16586, R77C); assay: Western blot and densitometry of α-SG content in βγδ-cells transiently expressing R77C-α-SG; format: cell-based; settings: single corrector, C17 10 μM or C4 5 μM, 24 hours
T1 construct: The full-length cDNA encoding human α-sarcoglycan cloned in the pcDNA3 mammalian expression vector; expressed in transfected cells; host or cells: βγδ-cells (HER911 cells stably expressing β-, γ- and δ-sarcoglycan)
T1 sequence (Q16586 24-387 R77C): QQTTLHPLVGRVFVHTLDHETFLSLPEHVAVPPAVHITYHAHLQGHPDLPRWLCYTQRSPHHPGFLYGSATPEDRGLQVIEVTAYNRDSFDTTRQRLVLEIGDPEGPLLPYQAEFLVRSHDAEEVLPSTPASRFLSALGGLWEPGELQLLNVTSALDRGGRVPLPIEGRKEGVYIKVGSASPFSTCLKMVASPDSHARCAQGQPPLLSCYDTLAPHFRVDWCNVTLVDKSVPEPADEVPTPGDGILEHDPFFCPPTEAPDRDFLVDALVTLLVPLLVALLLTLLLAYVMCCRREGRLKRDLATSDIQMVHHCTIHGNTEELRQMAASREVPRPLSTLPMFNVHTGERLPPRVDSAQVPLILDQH
Procedure: (§1) For transient expression, HEK 293 cells were seeded at 50,000 cells/cm2 and transfected the day after with Transit293 (MirusBio) according to manufacturer's instruction. Twenty-four hours after transfection, medium was replaced with DMEM supplemented with 2% FBS containing the indicated concentration of correctors (dissolved in DMSO) or with DMSO alone (final DMSO concentration 0.1%). HER911 or βγδ-cells cells were seeded at 50,000 cells/cm2 and transfected the day after with 9 μl of Fugene HD Transfection Reagent (E2312 from Promega) and 3 μg of plasmid coding for wild type or mutated α-SG. MG132 was added 8 hours before cell lysis, CFTR correctors were added 24 hours before cell lysis or IF assay (transfected HEK293, V247M cells, HER911 and βγδ-cells) and 24-96 hours before myotubes lysis, treatment with CHX or IF assay.
After treatments, cells were washed twice with ice cold PBS and lysed with 5% sodium deoxycholate supplemented with complete protease inhibitor (Sigma-Aldrich).
Protein lysates were quantified by the bicinchoninic-acid protein assay kit (Thermo Scientific), according to manufacturer's instructions. […] After 1-hour incubation with donkey anti-rabbit IRDye680 and anti-mouse IRDye800 antibodies (EuroBio) at room temperature, proteins were detected by fluorescence in an Odissey imaging system (Li-Cor) following the manufacturer's instructions. […]

R77C-α-SG [2] = target: T1, R77C-α-SG; assay: Immunofluorescence of membrane α-SG in intact βγδ-cells expressing R77C-α-SG (confocal, ImageXpress); format: cell-based; settings: single corrector, 24 hours
Procedure: as §1
Immunofluorescence-confocal analyses were performed either in intact cells (not permeabilized) or in permeabilized cells. For the former condition, cells, grown on polylysine-treated glasses, at the end of treatments were incubated for 30 minutes at 4° C., then gently washed twice with ice-cold PBS and incubated with primary antibodies for 5 hours at 4° C. […]
Quantification of the mean fluorescence intensity of membrane staining of […] transfected with R77C-α-SG was performed by using ImageXpress microscope system (Molecular Devices). […]

Row | R77C-α-SG protein content (R77C-α-SG [1]) | localization of rescued R77C-α-SG at the plasma membrane (confocal IF, not-permeabilized cells) (R77C-α-SG [2]) | Structure (SMILES)
1 | three to four-fold increase | intense cell-surface staining | COc1ccc(Cl)cc1Nc1nc(-c2sc(NC(=O)c3ccccc3)nc2C)cs1 [C4, N-[2-(5-Chloro-2-methoxy-phenylamino)-4′-methyl-[4,5′]bithiazolyl-2′-yl]-benzamide]
2 | three to four-fold increase | intense cell-surface staining | COc1ccc(Cl)cc1Nc1nc(-c2sc(NC(=O)C(C)(C)C)nc2C)cs1 [C17, N-(2-(5-chloro-2-methoxyphenylamino)-4′-methyl-4,5′-bithiazol-2′-yl)pivalamide]
